The source of these data is US10689354B2, “Aminoazole derivative” (Teijin Pharma Limited, priority 2015, dated 2020).

The structures appear in SMILES notation.

This assay deals with T1, androgen receptor (AR-LBD) (Rattus norvegicus, UniProt P15207).
T1 construct: 5 μL of 2×AR-LBD/Fluoromone AL Red Complex contained in the kit; purchased Invitrogen
T1 sequence (P15207 651-882 limits assumed): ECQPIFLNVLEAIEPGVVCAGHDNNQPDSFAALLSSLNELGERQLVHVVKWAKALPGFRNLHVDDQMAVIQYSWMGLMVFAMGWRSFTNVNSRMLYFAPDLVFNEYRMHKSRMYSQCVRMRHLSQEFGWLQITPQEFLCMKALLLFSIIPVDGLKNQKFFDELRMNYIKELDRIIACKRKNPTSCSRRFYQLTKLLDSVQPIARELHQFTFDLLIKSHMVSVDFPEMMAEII
Put plainly: Evaluation of androgen receptor affinity (PolarScreen Androgen Receptor Competitor Assay Kit, Red; fluorescence polarization). Particulars: 22° C. for 5 hours, relative to binding rate of 1 μM DHT, read-out: AR affinity (pEC50) (converted). The essentials: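 Duplicate wells of test compound were mixed with the kit's rat AR-LBD–Fluoromone AL Red tracer complex and left 5 hours at 22 °C before polarization was read. A 4-parameter fit gave pEC50, with binding rate referenced to 1 μM dihydrotestosterone.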
As for `Cc1noc(C)c1CN(CCc1ccc(Cl)cc1)c1nc(C(=O)NS(C)(=O)=O)c(C)s1` [Compound 151, 2-[2-(4-chlorophenyl)ethyl-[(3,5-dimethylisoxazol-4-yl)methyl]amino]-5-methyl-N-methylsulfonyl-thiazole-4-carboxamide], the EC50 is greater than 2000 nM. The value for `Cc1sc(N(CCn2nccn2)Cc2ccccc2)nc1C(=O)NS(C)(=O)=O` [Compound 679, 2-[benzyl-[2-(triazol-2-yl)ethyl]amino]-5-methyl-N-methylsulfonyl-thiazole-4-carboxamide] was greater than 2000 nM; that for `Cc1sc(N(CCC(F)(F)F)Cc2ccccc2)nc1C(=O)NS(C)(=O)=O` [Compound 711, 2-[benzyl(3,3,3-trifluoropropyl)amino]-5-methyl-N-methylsulfonyl-thiazole-4-carboxamide] was greater than 2000 nM; that for `Cc1cc(CN(c2ccc(C#N)cc2)c2nc(C(=O)NS(C)(=O)=O)c(C)s2)no1` [Compound 445, 2-[4-cyano-N-[(5-methylisoxazol-3-yl)methyl]anilino]-5-methyl-N-methylsulfonyl-thiazole-4-carboxamide] was 631 nM.

For `Cc1sc(N(c2ccc(C#N)cc2F)[C@@H](CO)c2ccccc2)nc1C(=O)NS(C)(=O)=O` [Compound 667, 2-(4-cyano-2-fluoro-N-[(1R)-2-hydroxy-1-phenyl-ethyl]anilino)-5-methyl-N-methylsulfonyl-thiazole-4-carboxamide], the EC50 is greater than 2000 nM. The value for `Cc1sc(N(CCc2ccc(O)cc2)c2ccc(C#N)cc2)nc1C(=O)NS(C)(=O)=O` [Compound 62, 2-[4-cyano-N-[2-(4-hydroxyphenyl)ethyl]anilino]-5-methyl-N-methylsulfonyl-thiazole-4-carboxamide] was 1580 nM; that for `Cc1sc(N(CC(=O)Nc2ccccc2)c2ccc(C#N)cc2)nc1C(=O)NS(C)(=O)=O` [Compound 425, 2-(N-(2-anilino-2-oxo-ethyl)-4-cyano-anilino)-5-methyl-N-methylsulfonyl-thiazole-4-carboxamide] was 1260 nM. For `COCCOc1cccc(N(Cc2ccccc2)c2nc(C(=O)NS(C)(=O)=O)c(C)s2)c1` [Compound 398, 2-[N-benzyl-3-(2-methoxyethoxy)anilino]-5-methyl-N-methylsulfonyl-thiazole-4-carboxamide] the value was greater than 2000 nM; for `Cc1sc(N(Cc2ccccc2)Cc2csc3cc(C#N)ccc23)nc1C(=O)NS(C)(=O)=O` [Compound 675, 2-[benzyl-[(6-cyanobenzothiophen-3-yl)methyl]amino]-5-methyl-N-methylsulfonyl-thiazole-4-carboxamide], greater than 2000 nM.

On to `Cc1sc(N(Cc2ccccc2)c2ccc(OCC(=O)O)cc2)nc1C(=O)NS(C)(=O)=O` [Example 212, 2-[4-[benzyl-[5-methyl-4-(methylsulfonylcarbamoyl)thiazol-2-yl]amino]phenoxy]acetic acid], for which the EC50 was greater than 2000 nM. For `Cc1sc(N(Cc2ccccc2)c2ccc(C#N)cc2)nc1C(=O)NS(=O)(=O)c1cn(C)cn1` [Compound 394, 2-(N-benzyl-4-cyano-anilino)-5-methyl-N-(1-methylimidazol-4-yl)sulfonyl-thiazole-4-carboxamide] the value was greater than 2000 nM; for `Cc1sc(N(Cc2ccccc2)c2ccccc2)nc1C(=O)NS(C)(=O)=O` [Compound 428, 2-(N-benzylanilino)-5-methyl-N-methylsulfonyl-thiazole-4-carboxamide], greater than 2000 nM. The value for `Cc1sc(N(c2ccc(C#N)cc2F)[C@@H](CO)Cc2ccccc2)nc1C(=O)NS(C)(=O)=O` [Example 287, 2-(N-[(1R)-1-benzyl-2-hydroxy-ethyl]-4-cyano-2-fluoro-anilino)-5-methyl-N-methylsulfonyl-thiazole-4-carboxamide] was greater than 2000 nM; that for `CS(=O)(=O)NC(=O)c1nc(N(Cc2ccccc2)c2ccc(C#N)cc2)sc1-c1ccccc1` [Compound 601, 2-(N-benzyl-4-cyano-anilino)-N-methylsulfonyl-5-phenyl-thiazole-4-carboxamide] was greater than 2000 nM.
